# Reference: patent US20250270707A1, “NON-TRIAZOLE IMIDAZOLINE AND AMIDE COMPOUNDS AND METHODS FOR INHIBITING CORROSION IN INDUSTRIAL WATER TREATMENT” (CHEMTREAT, INC., priority 2023, published 2025)
# Columns and labels:
# [1] = Corrosion rate by LPR sweep, copper coupons in synthetic water, 50° C., 1 ppm free chlorine after 0.5 hrs (Examples 1 and 2)
# Procedure: (§1) One liter samples of synthetic water were each dosed with the compositions in Table 1.
# (§2) The apparatus used for the corrosion testing was a Gamry Multiport Corrosion Cell and Gamry Reference 600+potentiostat with multiplexor. Copper coupons (CDA110) were added to the sample cells containing neutral water (pH 7.5), and the cells were dosed with 50 ppm of scale inhibitor (co-polymer and 2-phosphonobutane-1,2,4-yricarboxylic acid) and heated to 50° C. and maintained at this temperature throughout the testing. The cells were continuously stirred at a speed of 350 rpm. A cylindrical working electrode was submerged into the test solutions, and an LPR sweep (linear polarization resistance) was performed every hour for 18 hours. After the 0.5 hrs mark, 1 ppm of free chlorine was dosed into the corrosion cell.
# (§3) One liter samples of the synthetic water described above with respect to Example 1 were each dosed with the compositions in Table 5 and processed under conditions similar to Example 1.
# [2] = Cl2 demand in the corrosion cell test (Examples 1 and 2); type: physicochemical
# Procedure: as §1, §2, §3
# [3] = Control normalized Cl2 demand over time (Example 3, FIG. 3); type: physicochemical; conditions: 1 ppm; compared to 50% sodium glucoheptonate (10 ppm)
# Text: One liter samples of the synthetic water described above with respect to Example 1 were each dosed with the compositions in Table 7 and processed under conditions similar to Example 1.
molecule,measurement,setting,value
sodium dicarboxylethyl coco phosphoethyl imidazoline [SDCPI],CR Average (10-18 hrs),[1]; 1 ppm,0.224 mpy
same,CR Peak,[1]; 1 ppm,0.279 mpy
same,corrosion rate,"[1]; 1 ppm, 0 hrs",0.025 mpy
same,corrosion rate,"[1]; 1 ppm, 1 hrs",0.279 mpy
same,corrosion rate,"[1]; 1 ppm, 2 hrs",0.252 mpy
same,corrosion rate,"[1]; 1 ppm, 3 hrs",0.257 mpy
same,corrosion rate,"[1]; 1 ppm, 4 hrs",0.245 mpy
same,corrosion rate,"[1]; 1 ppm, 5 hrs",0.214 mpy
same,corrosion rate,"[1]; 1 ppm, 6 hrs",0.200 mpy
same,corrosion rate,"[1]; 1 ppm, 7 hrs",0.184 mpy
same,corrosion rate,"[1]; 1 ppm, 8 hrs",0.175 mpy
same,corrosion rate,"[1]; 1 ppm, 9 hrs",0.174 mpy
same,corrosion rate,"[1]; 1 ppm, 10 hrs",0.182 mpy
same,corrosion rate,"[1]; 1 ppm, 11 hrs",0.197 mpy
same,corrosion rate,"[1]; 1 ppm, 12 hrs",0.213 mpy
same,corrosion rate,"[1]; 1 ppm, 13 hrs",0.226 mpy
same,corrosion rate,"[1]; 1 ppm, 14 hrs",0.240 mpy
same,corrosion rate,"[1]; 1 ppm, 15 hrs",0.247 mpy
same,corrosion rate,"[1]; 1 ppm, 16 hrs",0.249 mpy
same,corrosion rate,"[1]; 1 ppm, 17 hrs",0.241 mpy
same,corrosion rate,"[1]; 1 ppm, 18 hrs",0.226 mpy
same,CR Average (10-18 hrs),[1]; 2 ppm,0.013 mpy
same,CR Peak,[1]; 2 ppm,0.092 mpy
same,corrosion rate,"[1]; 2 ppm, 0 hrs",0.0168 mpy
same,corrosion rate,"[1]; 2 ppm, 1 hrs",0.0923 mpy
same,corrosion rate,"[1]; 2 ppm, 2 hrs",0.0637 mpy
same,corrosion rate,"[1]; 2 ppm, 3 hrs",0.0529 mpy
same,corrosion rate,"[1]; 2 ppm, 4 hrs",0.0240 mpy
same,corrosion rate,"[1]; 2 ppm, 5 hrs",0.0173 mpy
same,corrosion rate,"[1]; 2 ppm, 6 hrs",0.0164 mpy
same,corrosion rate,"[1]; 2 ppm, 7 hrs",0.0167 mpy
same,corrosion rate,"[1]; 2 ppm, 8 hrs",0.0171 mpy
same,corrosion rate,"[1]; 2 ppm, 9 hrs",0.0179 mpy
same,corrosion rate,"[1]; 2 ppm, 10 hrs",0.0165 mpy
same,corrosion rate,"[1]; 2 ppm, 11 hrs",0.0151 mpy
same,corrosion rate,"[1]; 2 ppm, 12 hrs",0.0139 mpy
same,corrosion rate,"[1]; 2 ppm, 13 hrs",0.0133 mpy
same,corrosion rate,"[1]; 2 ppm, 14 hrs",0.0127 mpy
same,corrosion rate,"[1]; 2 ppm, 15 hrs",0.0117 mpy
same,corrosion rate,"[1]; 2 ppm, 16 hrs",0.0116 mpy
same,corrosion rate,"[1]; 2 ppm, 17 hrs",0.0113 mpy
same,corrosion rate,"[1]; 2 ppm, 18 hrs",0.0103 mpy
same,CR Average (10-18 hrs),[1]; 3 ppm,0.042 mpy
same,CR Peak,[1]; 3 ppm,0.053 mpy
same,corrosion rate,"[1]; 3 ppm, 0 hrs",0.013 mpy
same,corrosion rate,"[1]; 3 ppm, 1 hrs",0.053 mpy
same,corrosion rate,"[1]; 3 ppm, 2 hrs",0.039 mpy
same,corrosion rate,"[1]; 3 ppm, 3 hrs",0.043 mpy
same,corrosion rate,"[1]; 3 ppm, 4 hrs",0.042 mpy
same,corrosion rate,"[1]; 3 ppm, 5 hrs",0.042 mpy
same,corrosion rate,"[1]; 3 ppm, 6 hrs",0.044 mpy
same,corrosion rate,"[1]; 3 ppm, 7 hrs",0.044 mpy
same,corrosion rate,"[1]; 3 ppm, 8 hrs",0.044 mpy
same,corrosion rate,"[1]; 3 ppm, 9 hrs",0.046 mpy
same,corrosion rate,"[1]; 3 ppm, 10 hrs",0.046 mpy
same,corrosion rate,"[1]; 3 ppm, 11 hrs",0.046 mpy
same,corrosion rate,"[1]; 3 ppm, 12 hrs",0.044 mpy
same,corrosion rate,"[1]; 3 ppm, 13 hrs",0.043 mpy
same,corrosion rate,"[1]; 3 ppm, 14 hrs",0.042 mpy
same,corrosion rate,"[1]; 3 ppm, 15 hrs",0.041 mpy
same,corrosion rate,"[1]; 3 ppm, 16 hrs",0.040 mpy
same,corrosion rate,"[1]; 3 ppm, 17 hrs",0.039 mpy
same,corrosion rate,"[1]; 3 ppm, 18 hrs",0.038 mpy
same,corrosion inhibition properties over the entire 18 hour period (in words),"[1]; Example 2, 2 ppm",good corrosion inhibition properties
same,Cl2 Demand,[2]; 1 ppm,0.3 mg/L
same,Cl2 Demand,[2]; 2 ppm,0.9 mg/L
same,Cl2 Demand,[2]; 3 ppm,0.8 mg/L
same,control normalized C12 demand over time (in words),[3],did not result in significant loss of C12 demand
"CCCCCCCCCCCCN(CCC(=O)[O-])CCC(=O)O.[Na+] [SL, Sodium Lauriminodipropionate, reference compound]",CR Average (10-18 hrs),[1]; 2 ppm,0.067 mpy
same,CR Peak,[1]; 2 ppm,0.932 mpy
same,corrosion rate,"[1]; 2 ppm, 0 hrs",0.0368 mpy
same,corrosion rate,"[1]; 2 ppm, 1 hrs",0.9317 mpy
same,corrosion rate,"[1]; 2 ppm, 2 hrs",0.4889 mpy
same,corrosion rate,"[1]; 2 ppm, 3 hrs",0.3498 mpy
same,corrosion rate,"[1]; 2 ppm, 4 hrs",0.2185 mpy
same,corrosion rate,"[1]; 2 ppm, 5 hrs",0.1644 mpy
same,corrosion rate,"[1]; 2 ppm, 6 hrs",0.1286 mpy
same,corrosion rate,"[1]; 2 ppm, 7 hrs",0.1128 mpy
same,corrosion rate,"[1]; 2 ppm, 8 hrs",0.0992 mpy
same,corrosion rate,"[1]; 2 ppm, 9 hrs",0.0910 mpy
same,corrosion rate,"[1]; 2 ppm, 10 hrs",0.0854 mpy
same,corrosion rate,"[1]; 2 ppm, 11 hrs",0.0779 mpy
same,corrosion rate,"[1]; 2 ppm, 12 hrs",0.0757 mpy
same,corrosion rate,"[1]; 2 ppm, 13 hrs",0.0685 mpy
same,corrosion rate,"[1]; 2 ppm, 14 hrs",0.0643 mpy
same,corrosion rate,"[1]; 2 ppm, 15 hrs",0.0613 mpy
same,corrosion rate,"[1]; 2 ppm, 16 hrs",0.0580 mpy
same,corrosion rate,"[1]; 2 ppm, 17 hrs",0.0543 mpy
same,corrosion rate,"[1]; 2 ppm, 18 hrs",0.0536 mpy
same,corrosion inhibition properties over the entire 18 hour period (in words),"[1]; Example 2, 2 ppm",did not perform well
same,Cl2 Demand,[2]; 2 ppm,0.7 mg/L
"CCCCCCCC(=O)NCCN(CCOCCC(=O)[O-])CCC(=O)[O-].[Na+].[Na+] [DCADPP, Disodium Capryloamphodipropionate]",CR Average (10-18 hrs),[1]; 2 ppm,0.304 mpy
same,CR Peak,[1]; 2 ppm,2.169 mpy
same,corrosion rate,"[1]; 2 ppm, 0 hrs",0.0293 mpy
same,corrosion rate,"[1]; 2 ppm, 1 hrs",2.1690 mpy
same,corrosion rate,"[1]; 2 ppm, 2 hrs",1.4770 mpy
same,corrosion rate,"[1]; 2 ppm, 3 hrs",1.3090 mpy
same,corrosion rate,"[1]; 2 ppm, 4 hrs",0.6705 mpy
same,corrosion rate,"[1]; 2 ppm, 5 hrs",0.6007 mpy
same,corrosion rate,"[1]; 2 ppm, 6 hrs",0.6353 mpy
same,corrosion rate,"[1]; 2 ppm, 7 hrs",0.5403 mpy
same,corrosion rate,"[1]; 2 ppm, 8 hrs",0.4352 mpy
same,corrosion rate,"[1]; 2 ppm, 9 hrs",0.3962 mpy
same,corrosion rate,"[1]; 2 ppm, 10 hrs",0.3671 mpy
same,corrosion rate,"[1]; 2 ppm, 11 hrs",0.3426 mpy
same,corrosion rate,"[1]; 2 ppm, 12 hrs",0.3293 mpy
same,corrosion rate,"[1]; 2 ppm, 13 hrs",0.3130 mpy
same,corrosion rate,"[1]; 2 ppm, 14 hrs",0.2994 mpy
same,corrosion rate,"[1]; 2 ppm, 15 hrs",0.2826 mpy
same,corrosion rate,"[1]; 2 ppm, 16 hrs",0.2749 mpy
same,corrosion rate,"[1]; 2 ppm, 17 hrs",0.2691 mpy
same,corrosion rate,"[1]; 2 ppm, 18 hrs",0.2604 mpy
same,corrosion inhibition properties over the entire 18 hour period (in words),"[1]; Example 2, 2 ppm",inferior corrosion inhibition properties
same,corrosion resistance when free chlorine was added (in words),"[1]; Example 2, 2 ppm",substantial deterioration in corrosion resistance
same,Cl2 Demand,[2]; 2 ppm,1.0 mg/L
